# Results from patent publication US20230227405A1, “5-OXOPYRROLIDINE-3-CARBOXAMIDES AS NAV1.8 INHIBITORS” (MERCK SHARP & DOHME CORP., priority 2020, published 2023).
# Target: T1, human Nav1.8 (Homo sapiens, UniProt Q9Y5Y9)
# T1 construct: expressed in transfected cells
# Test: Qube® automated patch-clamp assay, Nav1.8
# Format: cell-based
# Conditions: human Nav1.8 stably expressed in HEK 293 cells; whole-cell voltage clamp, room temperature; read-out: IC50 values (nM) for Examples in the Nav1.8 Qube® Assay
# Protocol: Compounds were tested on human Nav1.8 and Nav1.5 channels stably expressed in human embryo kidney (HEK) 293 cells. Sodium current measurements on Qube® were conducted as follows: automated 384-well patch-clamp assays on the Qube® platform (Sophion Biosciences) were used to measure the inhibition of sodium flow through human Nav1.8 and Nav1.5 channels. Whole-cell voltage-clamp recordings were performed in QChips® (Sophion Biosciences) at room temperature. Nav1.8 current measurements on Qube® were obtained as follows: Nav1.8 currents were elicited with a 10 second 1 Hertz (Hz) pulse train from a holding potential of −90 millivolts (mV), delivered to the cells once per minute in the control condition (DMSO only) and after compound addition. The 1 hertz pulse train stimulation consisted of ten test pulses to 10 millivolt (mV) for 20 milliseconds (ms), each of which was followed by a 980 millisecond repolarization to −67 millivolts. At the end of the 10 second pulse train stimulation, a 5 second hyperpolarization step to −100 millivolt (mV) was used to recover Nav1.8 from fast inactivation. The peak currents elicited by the 1st and 10th test pulses were used to determine IC50 values for resting inhibition and inactivated state inhibition. Nav1.5 current measurements on Qube® were obtained as follows: Nav1.5 currents were elicited with a 20 second 3 Hertz pulse train in the control condition (DMSO only) and after compound addition. The pulse train consisted of sixty 20 millisecond test pulses to 0 millivolt from a holding potential of −80 millivolt (mV). The average peak currents elicited by the last 3 test pulses were used to determine IC50 values for Nav1.5 inhibition.
# The following buffers were used for the Qube® recordings: External buffer for Nav1.8 Qube® recording: 150 NaCl, 2 CaCl2, 5 KCl, 1 Mg Cl2, 10 HEPES, 12 Dextrose; External buffer for Qube® Nav1.5 recording: 120 N-Methyl-D-Glucamine, 40 NaCl, 1 KCl, 2.7 CaCl2, 5 HEPES, 0.5 MgCl2; and Internal buffer for Qube® recording: 120 CsF, 30 CsCl, 10 EGTA, 5 HEPES, 5 NaF, 2 MgCl2.
# For all Qube® experiments offline analysis was used to determine percent inhibition as a function of drug concentration. IC50 values were determined by fitting to the Hill equation.
# T1 sequence (Q9Y5Y9 whole entry): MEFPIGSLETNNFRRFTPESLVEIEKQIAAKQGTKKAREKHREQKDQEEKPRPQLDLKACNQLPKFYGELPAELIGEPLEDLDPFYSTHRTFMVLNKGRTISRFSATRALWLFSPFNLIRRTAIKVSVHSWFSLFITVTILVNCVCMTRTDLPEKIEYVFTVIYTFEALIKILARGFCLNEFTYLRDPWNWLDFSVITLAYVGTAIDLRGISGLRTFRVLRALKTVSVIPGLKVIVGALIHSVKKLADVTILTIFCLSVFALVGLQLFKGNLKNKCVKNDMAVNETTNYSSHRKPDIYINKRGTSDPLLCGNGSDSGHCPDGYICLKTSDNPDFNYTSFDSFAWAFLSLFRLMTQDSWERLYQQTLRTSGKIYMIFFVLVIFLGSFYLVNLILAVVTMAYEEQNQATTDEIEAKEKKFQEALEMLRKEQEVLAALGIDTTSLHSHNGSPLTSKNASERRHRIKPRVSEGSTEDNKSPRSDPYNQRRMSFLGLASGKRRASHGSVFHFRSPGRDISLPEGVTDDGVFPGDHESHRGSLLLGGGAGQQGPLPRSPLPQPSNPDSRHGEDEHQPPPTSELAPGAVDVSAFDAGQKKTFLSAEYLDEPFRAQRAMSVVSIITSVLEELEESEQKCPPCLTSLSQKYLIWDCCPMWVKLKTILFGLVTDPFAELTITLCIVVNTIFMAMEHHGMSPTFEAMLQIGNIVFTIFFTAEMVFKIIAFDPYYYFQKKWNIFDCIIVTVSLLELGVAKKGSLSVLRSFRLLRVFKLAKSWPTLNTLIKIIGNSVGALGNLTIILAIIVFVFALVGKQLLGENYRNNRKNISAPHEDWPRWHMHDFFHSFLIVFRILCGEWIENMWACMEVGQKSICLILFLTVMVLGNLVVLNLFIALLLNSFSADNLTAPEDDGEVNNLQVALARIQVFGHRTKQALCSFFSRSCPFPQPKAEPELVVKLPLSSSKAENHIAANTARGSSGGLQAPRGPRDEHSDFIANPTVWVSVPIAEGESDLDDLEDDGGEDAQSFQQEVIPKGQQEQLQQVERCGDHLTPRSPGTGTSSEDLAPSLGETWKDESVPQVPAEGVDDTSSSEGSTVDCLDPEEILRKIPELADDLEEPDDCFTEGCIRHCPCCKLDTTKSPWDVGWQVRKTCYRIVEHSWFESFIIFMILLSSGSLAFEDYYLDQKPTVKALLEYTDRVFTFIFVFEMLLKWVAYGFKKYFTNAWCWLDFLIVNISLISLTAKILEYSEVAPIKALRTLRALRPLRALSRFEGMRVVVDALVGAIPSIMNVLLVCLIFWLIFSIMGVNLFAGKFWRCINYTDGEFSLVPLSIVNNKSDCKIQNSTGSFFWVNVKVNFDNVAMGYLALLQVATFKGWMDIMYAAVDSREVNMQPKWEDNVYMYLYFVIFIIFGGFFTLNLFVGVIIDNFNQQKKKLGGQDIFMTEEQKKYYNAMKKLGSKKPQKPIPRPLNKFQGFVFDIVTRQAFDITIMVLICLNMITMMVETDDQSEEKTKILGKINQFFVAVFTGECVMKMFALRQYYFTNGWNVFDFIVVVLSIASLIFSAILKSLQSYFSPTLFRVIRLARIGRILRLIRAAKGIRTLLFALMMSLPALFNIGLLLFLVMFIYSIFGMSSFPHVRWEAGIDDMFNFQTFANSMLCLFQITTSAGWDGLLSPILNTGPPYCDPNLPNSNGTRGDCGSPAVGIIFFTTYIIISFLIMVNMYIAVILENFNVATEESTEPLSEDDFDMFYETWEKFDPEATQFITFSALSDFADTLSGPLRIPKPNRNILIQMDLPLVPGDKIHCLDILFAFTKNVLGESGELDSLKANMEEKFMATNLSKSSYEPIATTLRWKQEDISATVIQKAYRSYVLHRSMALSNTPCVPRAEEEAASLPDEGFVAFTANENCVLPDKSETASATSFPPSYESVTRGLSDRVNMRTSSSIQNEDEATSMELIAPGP
row,Structure (SMILES),IC50 [nM]
1,"O=C1C[C@H](C(=O)NC(c2ccc(Cl)cc2)c2ccc(F)c(Cl)c2)CN1 (mixture of isomers) [Example 1B, (S—N—((R and S)-(3-chloro-4-fluorophenyl)(4-chlorophenyl)methyl)-5-oxopyrrolidine-3-carboxamide]",13
2,"O=C1C[C@H](C(=O)NC(c2ccc(Cl)cc2)c2ccc(F)c(Cl)c2)CN1 (single isomer, unassigned) [Example 1A, (S—N—((R or S)-(3-chloro-4-fluorophenyl)(4-chlorophenyl)methyl)-5-oxopyrrolidine-3-carboxamide]",3.4
3,"O=C1C[C@H](C(=O)NC(c2ccc(Cl)cc2)c2ccc(F)c(C(F)(F)F)c2)CN1 (single isomer, unassigned) [Example 11A, (S)-N-((R or S)-(4-chlorophenyl)(4-fluoro-3-(trifluoromethyl)phenyl)methyl)-5-oxopyrrolidine-3-carboxamide]",2.6
4,"O=C1C[C@H](C(=O)NC(c2ccc(Cl)cc2)c2ccc(F)c(C(F)(F)F)c2)CN1 (single isomer, unassigned) [Example 11B, (S)-N-((R or S)-(4-chlorophenyl)(4-fluoro-3-(trifluoromethyl)phenyl)methyl)-5-oxopyrrolidine-3-carboxamide]",17
5,"O=C1C[C@H](C(=O)NC(c2ccc(Cl)cc2)c2ccc(OC(F)(F)F)cc2)CN1 (single isomer, unassigned) [Example 12A, (S)-N-((R or S)-(4-chlorophenyl)(4-(trifluoromethoxy)phenyl)methyl)-5-oxopyrrolidine-3-carboxamide]",28
6,"O=C1C[C@H](C(=O)NC(c2ccc(Cl)cc2)c2ccc(OC(F)(F)F)cc2)CN1 (single isomer, unassigned) [Example 12B, (S)-N-((R or S)-(4-chlorophenyl)(4-(trifluoromethoxy)phenyl)methyl)-5-oxopyrrolidine-3-carboxamide]",4.1
7,"N#Cc1ccc(C(NC(=O)[C@@H]2CNC(=O)C2)c2ccc(F)c(Cl)c2)cc1 (single isomer, unassigned) [Example 13A, (S)-N-((R or S)-(3-chloro-4-fluorophenyl)(4-cyanophenyl)methyl)-5-oxopyrrolidine-3-carboxamide]",139
8,"N#Cc1ccc(C(NC(=O)[C@@H]2CNC(=O)C2)c2ccc(F)c(Cl)c2)cc1 (single isomer, unassigned) [Example 13B, (S)-N-((R or S)-(3-chloro-4-fluorophenyl)(4-cyanophenyl)methyl)-5-oxopyrrolidine-3-carboxamide]",129
9,"O=C1C[C@H](C(=O)NC(c2cnc(C(F)(F)F)c(Cl)c2)c2ccc(F)c(Cl)c2F)CN1 (single isomer, unassigned) [Example 15, (S—N—((R or S)-(3-chloro-2,4-difluorophenyl)(5-chloro-6-(trifluoromethyl)pyridin-3-yl)methyl)-5-oxopyrrolidine-3-carboxamide]",4.2
10,"O=C1C[C@H](C(=O)NC(c2ccc(F)c(Cl)c2F)[C@H]2C[C@H](C(F)(F)F)C2)CN1 (single isomer, unassigned) [Example 16, (S—N—((R or S)-(3-chloro-2,4-difluorophenyl)((trans)-3-(trifluoromethyl)cyclobutyl)methyl)-5-oxopyrrolidine-3-carboxamide]",46
11,"O=C1C[C@H](C(=O)NC(c2ccc(C(F)(F)F)cc2)c2ccc(F)c(Cl)c2)CN1 (single isomer, unassigned) [Example 17, (S—N—((R or S)-(3-chloro-4-fluorophenyl)(4-(trifluoromethyl)phenyl)methyl)-5-oxopyrrolidine-3-carboxamide]",11

# Other lines, results leading:
row,IC50 [nM],Structure (SMILES)
1,1.2,"O=C1C[C@H](C(=O)NC(c2ccc(Cl)cc2)c2ccc(Cl)c(C(F)(F)F)c2)CN1 (single isomer, unassigned) [Example 14A, (S—N—((R or S)-(4-chloro-3-(trifluoromethyl)phenyl)(4-chlorophenyl)methyl)-5-oxopyrrolidine-3-carboxamide]"
2,9.4,"O=C1C[C@H](C(=O)NC(c2ccc(Cl)cc2)c2ccc(Cl)c(C(F)(F)F)c2)CN1 (single isomer, unassigned) [Example 14B, (S—N—((R or S)-(4-chloro-3-(trifluoro-methyl)phenyl)(4-chlorophenyl)methyl)-5-oxopyrrolidine-3-carboxamide]"
3,16,"O=C1C[C@H](C(=O)NC(c2ccc(OC(F)(F)F)cc2)c2cccc(Cl)c2)CN1 (single isomer, unassigned) [Example 19A, (S)-N-((R or S)-(3-chlorophenyl)(4-(trifluoromethoxy)phenyl)methyl)-5-oxopyrrolidine-3-carboxamide]"
4,17,"O=C1C[C@H](C(=O)NC(c2ccc(OC(F)(F)F)cc2)c2cccc(Cl)c2)CN1 (single isomer, unassigned) [Example 19B, (S)-N-((R or S)-(3-chlorophenyl)(4-(trifluoromethoxy)phenyl)methyl)-5-oxopyrrolidine-3-carboxamide]"
5,51,"O=C1C[C@H](C(=O)NC(c2ccc(F)c(Cl)c2)c2ccc(Cl)c(C(F)(F)F)n2)CN1 (single isomer, unassigned) [Example 20A, (S)-N-((R or S)-(3-chloro-4-fluorophenyl)(5-chloro-6-(trifluoromethyl)-pyridin-2-yl)methyl)-5-oxopyrrolidine-3-carboxamide]"
6,2.9,"O=C1C[C@H](C(=O)NC(c2ccc(F)c(Cl)c2)c2ccc(Cl)c(C(F)(F)F)n2)CN1 (single isomer, unassigned) [Example 20B, (S)-N-((R or S)-(3-chloro-4-fluorophenyl)(5-chloro-6-(trifluoromethyl)-pyridin-2-yl)methyl)-5-oxopyrrolidine-3-carboxamide]"
7,2220,"CC1(C)CC(C(NC(=O)[C@@H]2CNC(=O)C2)c2ccc(F)c(Cl)c2F)C1 (single isomer, unassigned) [Example 21A, (S—N—((R or S)-(3-chloro-2,4-difluorophenyl)(3,3-dimethylcyclobutyl)methyl)-5-oxopyrrolidine-3-carboxamide]"
8,17,"CC1(C)CC(C(NC(=O)[C@@H]2CNC(=O)C2)c2ccc(F)c(Cl)c2F)C1 (single isomer, unassigned) [Example 21B, (S—N—((R or S)-(3-chloro-2,4-difluorophenyl)(3,3-dimethylcyclobutyl)methyl)-5-oxopyrrolidine-3-carboxamide]"
9,7460,"CC1C(=O)NCC1C(=O)NC(c1ccc(Cl)cc1)c1ccc(Cl)cc1 (single isomer, unassigned) [Example 27A, (3(R or S),4(R or S)—N-(bis(4-chlorophenyl)methyl)-4-methyl-5-oxopyrrolidine-3-carboxamide]"
10,277,"CC1C(=O)NCC1C(=O)NC(c1ccc(Cl)cc1)c1ccc(Cl)cc1 (single isomer, unassigned) [Example 27B, (3(R or S),4(R or S)—N-(bis(4-chlorophenyl)methyl)-4-methyl-5-oxopyrrolidine-3-carboxamide]"
11,3480,"CC1C(=O)NCC1C(=O)NC(c1ccc(Cl)cc1)c1ccc(Cl)cc1 (single isomer, unassigned) [Example 27C, (3(R or S),4(R or S)—N-(bis(4-chlorophenyl)methyl)-4-methyl-5-oxopyrrolidine-3-carboxamide]"
